Results taken from patent US20260234163A1, “NOVEL COMPOUNDS AND USES THEREOF” (ACELINK THERAPEUTICS, INC., priority 2023, published 2026).
Like-named read-outs stand apart in the source and are kept apart here.

Experiments:
[1] = 21-membered ring

CCOC(=O)CC(c1ccc2c(c1)CNCC2)c1ccc2c(nnn2CCCCCN2CCN(C(=O)Oc3ccc([N+](=O)[O-])cc3)CC2)c1C (centres unmarked)
ring closure, yield after HPLC ([1]; the molecule shown is the open-chain precursor, other bond, K2CO3 (microwave), DMF, 10.2 mM, 130.0 °C, 2 steps): 72%

CCOC(=O)CC1c2cc(C)c3c(c2)CN(CC3)C(=O)c2ccc(cc2)COCCCn2nnc3c(C)c1ccc32 (centres unmarked)
ring closure, isolated yield (from CCOC(=O)CC(c1cc(C)c2c(c1)CNCC2)c1ccc2c(nnn2CCCOCc2ccc(C(=O)O)cc2)c1C, amide bond, 21-membered ring, HATU/DIEA, DMF, 131.5 mM, 20.0 °C, 2.0 h): 77.9%

CCOC(=O)CC1c2ccc(C)c(c2)CN(C)C(=O)c2ccc(cc2)COCCCn2nnc3c(C)c1ccc32 (centres unmarked)
ring closure, isolated yield (from CCOC(=O)CC(c1ccc(C)c(CNC)c1)c1ccc2c(nnn2CCCOCc2ccc(C(=O)O)cc2)c1C, amide bond, 21-membered ring, HATU/DIEA, DMF, 46.6 mM, 20.0 °C, 2.0 h): 95.2%

CCOC(=O)CC1c2ccc3c(c2)CN(CC3)C(=O)C2CCN(CCCCCn3nnc4c(C)c1ccc43)CC2 (centres unmarked)
ring closure, isolated yield (from CCOC(=O)CC(c1ccc2c(c1)CNCC2)c1ccc2c(nnn2CCCCCN2CCC(C(=O)O)CC2)c1C, amide bond, 21-membered ring, HATU/DIEA, DMF, 96.0 mM, 0.0 °C): 79.5%

CCOC(=O)CC1c2ccc3c(c2)CN(CC3)C(=O)C2CCN(CCOCCn3nnc4c(C)c1ccc43)CC2 (centres unmarked)
ring closure, isolated yield (from CCOC(=O)CC(c1ccc2c(c1)CNCC2)c1ccc2c(nnn2CCOCCN2CCC(C(=O)O)CC2)c1C, amide bond, 21-membered ring, HATU/DIEA, DMF, 142.0 mM, 25.0 °C): 38.2%

CCOC(=O)CC1c2ccc3c(c2)CN(CC3)S(=O)(=O)N2CCC(CC2)OCC=CCn2nnc3c(C)c1ccc32 (centres unmarked)
ring closure, yield after HPLC ([1]; from C=CCOC1CCN(S(=O)(=O)N2CCc3ccc(C(CC(=O)OCC)c4ccc5c(nnn5C/C=C/C)c4C)cc3C2)CC1, rcm bond, Grubbs catalyst, DCM, 6.2 mM, 40.0 °C, 19.0 h): 89.4%

CCOC(=O)CC1c2ccc3c(c2)CN(CC3)S(=O)(=O)c2ccc(cc2)OCCOCCn2nnc3c(C)c1ccc32 (centres unmarked)
ring closure, isolated yield (from CCOC(=O)CC(c1ccc2c(c1)CN(S(=O)(=O)c1ccc(O)cc1)CC2)c1ccc2c(nnn2CCOCCO)c1C, ether bond, 22-membered ring, DEAD/PPh3, DCM/THF, 28.8 mM, 20.0 °C, 4.0 h): 73.6%

CCOC(=O)CC1c2cccc(c2)CN(C)C(=O)c2ccc(cc2)COCCCn2nnc3c(C)c1ccc32 (centres unmarked)
ring closure, isolated yield (from CCOC(=O)CC(c1cccc(CNC)c1)c1ccc2c(nnn2CCCOCc2ccc(C(=O)O)cc2)c1C, amide bond, 21-membered ring, HATU/DIEA, DMF, 73.0 mM, 25.0 °C): 58.2%

CCOC(=O)C[C@@H](c1ccc2c(c1)CNCC2)c1ccc2c(nnn2CCCOCC2CCN(C(=O)Oc3c(F)c(F)c(F)c(F)c3F)CC2)c1C
ring closure, yield after HPLC ([1]; the molecule shown is the open-chain precursor, other bond, K2CO3/microwave, DMF, 24.7 mM, 120.0 °C): 20.9%

COC(=O)CC1c2ccc3c(nnn3CCOCCOC3CCN(CC3)C(=O)c3ccc4c(c3)CN1CC4)c2C (centres unmarked)
ring closure, isolated yield (from COC(=O)CC(c1ccc2c(nnn2CCOCCOC2CCNCC2)c1C)N1CCc2ccc(C(=O)O)cc2C1, amide bond, 22-membered ring, HATU/DIEA, DMF, 35.4 mM, 20.0 °C, 2.0 h): 90.4%

Cc1c2ccc3c1nnn3CCOCCN1CCN(CC1)C(=O)c1ccc3ccc(cc3c1)C2CC(=O)OC(C)(C)C (centres unmarked)
ring closure, isolated yield (from Cc1c(C(CC(=O)OC(C)(C)C)c2ccc3ccc(C(=O)O)cc3c2)ccc2c1nnn2CCOCCN1CCNCC1, amide bond, 21-membered ring, HATU/DIEA, DMF, 72.0 mM, 25.0 °C, 19.0 h): 19.5%
